Assay results reported in patent US20250136576A1, “Heterocyclic Compounds and Uses Thereof” (ACEA Therapeutics, Inc., priority 2021, published 2025).
Like-named read-outs stand apart in the source and are kept apart here.

Key:
Format in all cases: cell-based
MV-4-11 (AML) cells = assay: Cell proliferation and growth inhibition assay (CCK-8) in MV-4-11; settings: Homo sapiens, MV4-11; MV-4-11 cells, treated with test compounds for 72 hrs, CCK-8 viability
Method: MV-4-11 and H1975 cells were obtained from the American Type Culture Collection and KM12-luc cells were obtained from JCRB Cell Bank. All cell lines were maintained at 37° C. with 5% C02, in media supplemented with 10% fetal bovine serum and penicillin (100 units/mL) and streptomycin (100 μg/mL). MV-4-11 cells were maintained in Iscove's Modified Dubecco's Medium, H1975 cells were cultured with RPMI 1640 media, and KM12-luc cells were maintained in Dulbecco's Modification of Eagle's Medium. CCK-8 reagent was obtained from Yeasen.
Cell proliferation was assessed by CCK-8 assay (Yeasen) per the manufacturer's instructions. The MV-4-11 (AML), H1975, and KM12-luc cells were seeded at 30,000, 3,000 and 2,500 cells per well onto 96-well plates, and after a 24 h incubation, the cells were treated with test compounds for 72 hrs. Cell viability was assayed by incubating the cells with CCK-8 reagent for 1-4 hrs. Absorbance was measured at OD450 using the Beckman DTX880. The data was calculated using GraphPad Prism version 6.01. The IC50 values were fitted using a non-linear regression model with a sigmoidal dose response.

H1975 cells = assay: Cell proliferation and growth inhibition assay (CCK-8) in H1975; settings: Homo sapiens, NCI-H1975, 72 h, treated with test compounds for 72 hrs, CCK-8 viability, read-out: EGFR IC50 in H1975
Procedure, shortened: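 Cells seeded at 30,000 (MV-4-11, IMDM) or 3,000 (H1975, RPMI 1640) per well, left 24 h, then compound-treated 72 h at 37 °C, 5% CO2, 10% FBS. Viability read by CCK-8 (1–4 h) at OD450. IC50 from sigmoidal dose-response nonlinear regression.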

KM12-luc cells = assay: Cell proliferation and growth inhibition assay (CCK-8) in KM12-luc; settings: KM12-luc cells, treated with test compounds for 72 hrs, CCK-8 viability, read-out: NTRK IC50 in KM12-luc
Procedure, shortened: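 Cells were grown at 37 °C, 5% CO2 with 10% FBS: MV-4-11 in IMDM, H1975 in RPMI 1640, KM12-luc in DMEM. Viability was read by CCK-8 (1-4 hrs reagent incubation, absorbance at OD450). IC50 came from a non-linear sigmoidal dose-response fit.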

Structure (SMILES)	IC50 (MV-4-11 (AML) cells)	IC50 (H1975 cells)	IC50 (KM12-luc cells; KM12-Luc, 72 h)	IC50 (KM12-luc cells)
CC(=O)Nc1cc(Nc2ncc(Cl)c(-c3cn(C)c4ccccc34)n2)ccc1N1CCC(N(C)C)C1 (stereo not shown) [Compound 402, N-(5-((5-chloro-4-(1-methyl-1H-indol-3-yl)pyrimidin-2-yl)amino)-2-(3-(dimethylamino)pyrrolidin-1-yl)phenyl)acetamide]	64.2 nM	1210 nM	27.4 nM	
COc1cccc2c(-c3nc(Nc4ccc(N(C)CCN(C)C)c(NC(C)=O)c4)ncc3C(F)(F)F)c[nH]c12 [Compound 374, N-(2-((2-(dimethylamino)ethyl)(methyl)amino)-5-((4-(7-methoxy-1H-indol-3-yl)-5-(trifluoromethyl)pyrimidin-2-yl)amino)phenyl)acetamide]	5.3 nM	52.5 nM	3.7 nM	
CC(=O)Nc1cc(Nc2ncc(C(F)(F)F)c(-c3c[nH]c4c(F)cccc34)n2)ccc1OCCN(C)C [Compound 343, N-(2-(2-(dimethylamino)ethoxy)-5-((4-(7-fluoro-1H-indol-3-yl)-5-(trifluoromethyl)pyrimidin-2-yl)amino)phenyl)acetamide]	2.6 nM	77.3 nM	4.3 nM	
CC(=O)Nc1cc(Nc2ncc(C(F)(F)F)c(-c3c[nH]c4c(F)cccc34)n2)ccc1N1CC[C@H](N(C)C)C1 [Compound S-344, (S)—N-(2-(3-(dimethylamino)pyrrolidin-1-yl)-5-((4-(7-fluoro-1H-indol-3-yl)-5-(tri-fluoromethyl)pyrimidin-2-yl)amino)phenyl)acetamide]	5.6 nM	198 nM	6.3 nM	
CCC(=O)Nc1cccc(Nc2ncc(C(F)(F)F)c(Nc3ccc(N4CCN(C(C)=O)CC4)cc3OC)n2)c1 [Compound 169, N-(3-((4-((4-(4-acetylpiperazin-1-yl)-2-methoxyphenyl)amino)-5-(trifluoromethyl)pyrimidin-2-yl)amino)phenyl)propionamide]	25.9 nM	285 nM	43.8 nM	
Cc1cccc2c(-c3nc(Nc4ccc(N5CC[C@H](N(C)C)C5)c(N)c4)ncc3Cl)cn(C)c12 [Compound S-425, (S)—N^1-(5-chloro-4-(1,7-dimethyl-1H-indol-3-yl)pyrimidin-2-yl)-4-(3-(dimethylamino)pyrrolidin-1-yl)benzene-1,3-diamine]	3.2 nM	167 nM		3.5 nM
COc1cccc2c(-c3nc(Nc4ccc(N(C)CCN(C)C)c(N)c4)ncc3C(F)(F)F)c[nH]c12 [Compound 375, N^1-(2-(dimethylamino)ethyl)-N^4-(4-(7-methoxy-1H-indol-3-yl)-5-(trifluoromethyl)pyrimidin-2-yl)-N^1-methylbenzene-1,2,4-triamine]	4.2 nM	152 nM	4.1 nM	
COc1cnc(Nc2ccc(OCCN(C)C)c(NC(C)=O)c2)nc1-c1c[nH]c2c(C)cccc12 [Compound 284, N-(2-(2-(dimethylamino)ethoxy)-5-((5-methoxy-4-(7-methyl-1H-indol-3-yl)pyrimidin-2-yl)amino)phenyl)acetamide]	63.8 nM	1030 nM	15 nM	
COc1cccc2c(-c3nc(Nc4ccc(N5CC[C@@H](N(C)C)C5)c(N)c4)ncc3C(F)(F)F)c[nH]c12 [Compound R-383, (R)-4-(3-(dimethylamino)pyrrolidin-1-yl)-N^1-(4-(7-methoxy-1H-indol-3-yl)-5-(trifluoromethyl)pyrimidin-2-yl)benzene-1,3-diamine]	4.7 nM	129 nM	8.5 nM	
CC(=O)Nc1cc(Nc2ncc(Cl)c(-c3c[nH]c4ccccc34)n2)ccc1N1CCC(N(C)C)C1 (stereo not shown) [Compound 444, N-(5-((5-chloro-4-(1H-indol-3-yl)pyrimidin-2-yl)amino)-2-(3-(dimethylamino)pyrrolidin-1-yl)phenyl)acetamide]	2.9 nM	299 nM	5.5 nM	
CC(=O)Nc1cc(Nc2ncc(Cl)c(-c3c[nH]c4c(C)cccc34)n2)ccc1N1CC[C@@H](N(C)C)C1 [Compound R-426, (R)—N-(5-((5-chloro-4-(7-methyl-1H-indol-3-yl)pyrimidin-2-yl)amino)-2-(3-(dimethylamino)pyrrolidin-1-yl)phenyl)acetamide]	3 nM	152 nM	2.1 nM	
Cc1cccc2c(-c3nc(Nc4ccc(N(C)CCN(C)C)c(N)c4)ncc3Cl)c[nH]c12 [Compound 422, N^4-(5-chloro-4-(7-methyl-1H-indol-3-yl)pyrimidin-2-yl)-N^1-(2-(dimethylamino)ethyl)-N^1-methylbenzene-1,2,4-triamine]	5.2 nM	288 nM	5.2 nM	
CC(=O)Nc1cc(Nc2ncc(C(F)(F)F)c(-c3c[nH]c4c(C)cccc34)n2)ccc1N1CC[C@H](N(C)C)C1 [Compound S-366, (S)—N-(2-(3-(dimethylamino)pyrrolidin-1-yl)-5-((4-(7-methyl-1H-indol-3-yl)-5-(trifluoromethyl)pyrimidin-2-yl)amino)phenyl)acetamide]	3 nM	97.8 nM	3.1 nM	
COc1cccc2c(-c3nc(Nc4ccc(OCCN(C)C)c(NC(C)=O)c4)ncc3C(F)(F)F)c[nH]c12 [Compound 381, N-(2-(2-(dimethylamino)ethoxy)-5-((4-(7-methoxy-1H-indol-3-yl)-5-(trifluoromethyl)pyrimidin-2-yl)amino)phenyl)acetamide]	5.2 nM	168 nM	7.2 nM	
CC(=O)Nc1cc(Nc2ncc(Cl)c(-c3cn(C)c4c(C)cccc34)n2)ccc1N1CC[C@H](N(C)C)C1 [Compound S-426, (S)—N-(5-((5-chloro-4-(1,7-dimethyl-1H-indol-3-yl)pyrimidin-2-yl)amino)-2-(3-(dimethylamino)pyrrolidin-1-yl)phenyl)acetamide]	4.2 nM	189 nM		2.7 nM
COc1cccc2c(-c3nc(Nc4ccc(N5CC[C@H](N(C)C)C5)c(NC(C)=O)c4)ncc3C(F)(F)F)c[nH]c12 [Compound S-382a, (S)—N-(2-(3-(dimethylamino)pyrrolidin-1-yl)-5-((4-(7-methoxy-1H-indol-3-yl)-5-(trifluoromethyl)pyrimidin-2-yl)amino)phenyl)acetamide]	3.7 nM	134 nM	5.3 nM	
CC(=O)Nc1cc(Nc2ncc(C(F)(F)F)c(-c3c[nH]c4c(C)cccc34)n2)ccc1OCCN(C)C [Compound 365, N-(2-(2-(dimethylamino)ethoxy)-5-((4-(7-methy-1H-indol-3-yl)-5-(trifluoromethyl)pyrimidin-2-yl)amino)phenyl)acetamide]	4.4 nM	68.3 nM	4.3 nM	
CC(=O)Nc1cc(Nc2ncc(C(F)(F)F)c(-c3c[nH]c4c(F)cccc34)n2)ccc1N(C)CCN(C)C [Compound 334, N-(2-((2-(dimethylamino)ethyl)(methyl)amino)-5-((4-(7-fluoro-1H-indol-3-yl)-5-(trifluoromethyl)pyrimidin-2-yl)amino)phenyl)acetamide]	3.4 nM	92.1 nM	3 nM	
COc1cccc2c(-c3nc(Nc4ccc(N5CC[C@H](N(C)C)C5)c(N)c4)ncc3C(F)(F)F)c[nH]c12 [Compound S-383, (S)-4-(3-(dimethylamino)pyrrolidin-1-yl)-N^1-(4-(7-methoxy-1-1H-indol-3-yl)-5-(trifluoromethyl)pyrimidin-2-yl)benzene-1,3-diamine]	4.6 nM	118 nM	9.5 nM	
COc1cccc2c(-c3nc(Nc4ccc(N5CC[C@@H](N(C)C)C5)c(NC(C)=O)c4)ncc3C(F)(F)F)c[nH]c12 [Compound R-382, (R)—N-(2-(3-(dimethylamino)pyrrolidin-1-yl)-5-((4-(7-methoxy-1H-indol-3-yl)-5-(trifluoromethyl)pyrimidin-2-yl)amino)phenyl)acetamide]	6.3 nM	128 nM	9.2 nM	
CC(=O)Nc1cc(Nc2ncc(Cl)c(-c3cnc(C(C)C)n3C)n2)ccc1N(C)CCN(C)C [Compound 452, N-(5-((5-chloro-4-(2-isopropyl-1-methyl-1H-imidazol-5-yl)pyrimidin-2-yl)amino)-2-((2-(dimethylamino)ethyl)(methyl)amino)phenyl)acetamide]	> 1000 nM	> 20000 nM		
COc1cccc2c(-c3nc(Nc4ccc(N(C)CCN(C)C)c(NC(C)=O)c4)ncc3Cl)c[nH]c12 [Compound 433, N-(5-(5-chloro-4-(7-methoxy-1H-indol-3-yl)pyrimidin-2-ylamino)-2-((2-(dimethylamino)ethyl)(methyl)amino)phenyl)acetamide]		506 nM	13.9 nM	
